In ChEMBL document CHEMBL1201862, “PubChem BioAssay data set” (2004):
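48-hour exposure; five concentrations; linearly interpolated endpoints. At the GI50, growth is halved.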 The source made the active and inactive calls. Cut-off read from the data, not from the text of the source: active = GI50 up to about 1.1 µM and inactive = higher.

Columns and labels:
Test in all cases: NCI tumour cell line growth inhibition, 48 h
HOP-62 = system: HOP-62
SK-OV-3 = system: SK-OV-3
COLO 205 = system: COLO 205
NCI-H23 = system: NCI-H23
Malme-3M = system: Malme-3M
UACC-257 = system: UACC-257
ACHN = system: ACHN
SNB-75 = system: SNB-75
SW-620 = system: SW-620
HL-60 = system: HL-60
HOP-92 = system: HOP-92
SNB-19 = system: SNB-19
HCT-116 = system: HCT-116
DLD-1 = system: DLD-1
SF-295 = system: SF-295
K562 = system: K562
UACC-62 = system: UACC-62
NCI-H522 = system: NCI-H522
OVCAR-8 = system: OVCAR-8
A549 = system: A549
RPMI-8226 = system: RPMI-8226
HT-29 = system: HT-29
NCI-H460 = system: NCI-H460
LXFL 529 = system: LXFL 529
HOP-18 = system: HOP-18
UO-31 = system: UO-31
SN12C = system: SN12C
MOLT-4 = system: MOLT-4
OVCAR-5 = system: OVCAR-5
NCI-H226 = system: NCI-H226
IGROV-1 = system: IGROV-1
SK-MEL-5 = system: SK-MEL-5
786-0 = system: 786-0
OVCAR-4 = system: OVCAR-4
SNB-78 = system: SNB-78
RXF 631 = system: RXF 631
LOX IMVI = system: LOX IMVI
HCT-15 = system: HCT-15
M14 = system: M14
TK-10 = system: TK-10
KM12 = system: KM12
CCRF-CEM = system: CCRF-CEM
SK-MEL-2 = system: SK-MEL-2
EKVX = system: EKVX
SF-539 = system: SF-539
SK-MEL-28 = system: SK-MEL-28
KM-20L2 = system: KM-20L2
DMS-273 = system: DMS-273
RXF 393 = system: RXF 393
SF-268 = system: SF-268
CAKI-1 = system: CAKI-1
DMS-114 = system: DMS-114
SR = system: SR
A498 = system: A498
U-251 = system: U-251
OVCAR-3 = system: OVCAR-3
HCC 2998 = system: HCC 2998
M19-MEL = system: M19-MEL
XF498 = system: XF498

Measured: GI50

Cc1cc2occ(-c3ccc(Cl)cc3)c2c(=O)o1
inactive: HOP-62 > 100 µM | SK-OV-3 > 100 µM | COLO 205 > 100 µM | NCI-H23 > 100 µM | Malme-3M > 100 µM | UACC-257 > 100 µM | ACHN > 100 µM | SNB-75 55.7 µM | SW-620 > 100 µM | HL-60 > 100 µM | HOP-92 > 100 µM | SNB-19 > 100 µM | HCT-116 > 100 µM | DLD-1 76 µM | SF-295 > 100 µM | K562 > 100 µM | UACC-62 > 100 µM | NCI-H522 66.5 µM | OVCAR-8 > 100 µM | A549 > 100 µM | RPMI-8226 61.4 µM | HT-29 > 100 µM | NCI-H460 > 100 µM | LXFL 529 > 100 µM | HOP-18 > 100 µM | UO-31 58.1 µM | SN12C > 100 µM | MOLT-4 67.9 µM | OVCAR-5 > 100 µM | NCI-H226 > 100 µM | IGROV-1 > 100 µM | SK-MEL-5 > 100 µM | 786-0 > 100 µM | OVCAR-4 > 100 µM | SNB-78 > 100 µM | RXF 631 > 100 µM | LOX IMVI 72.8 µM | M14 88.1 µM | TK-10 > 100 µM | KM12 > 100 µM | CCRF-CEM > 100 µM | SK-MEL-2 > 100 µM | EKVX > 100 µM | SF-539 > 100 µM | SK-MEL-28 > 100 µM | KM-20L2 > 100 µM | DMS-273 > 100 µM | RXF 393 > 100 µM | SF-268 > 100 µM | CAKI-1 98.6 µM | DMS-114 > 100 µM | SR 38.1 µM | A498 > 100 µM | U-251 > 100 µM | OVCAR-3 > 100 µM
> 100 µM: HCT-15

Cc1ccccc1NC(=O)C(=O)C(C(=O)c1ccccc1F)C1OC(=O)c2ccccc21 (stereo not drawn)
24.5 µM: HCT-15
inactive: HOP-62 17.3 µM | SK-OV-3 34.1 µM | COLO 205 21.3 µM | NCI-H23 10.3 µM | Malme-3M 18.8 µM | UACC-257 21.1 µM | ACHN 43.7 µM | SNB-75 8.39 µM | SW-620 34.9 µM | HL-60 16.3 µM | HOP-92 33.3 µM | SNB-19 10.1 µM | HCT-116 15 µM | DLD-1 22.2 µM | K562 24.3 µM | NCI-H522 5.68 µM | OVCAR-8 > 10 µM | A549 42.2 µM | RPMI-8226 11.9 µM | HT-29 40.3 µM | NCI-H460 32.9 µM | LXFL 529 13.4 µM | HOP-18 23.4 µM | UO-31 15.8 µM | SN12C 25 µM | HCC 2998 11.5 µM | MOLT-4 9.59 µM | OVCAR-5 41.8 µM | NCI-H226 3.38 µM | SK-MEL-5 22.4 µM | 786-0 16.3 µM | OVCAR-4 18.4 µM | SNB-78 13.3 µM | RXF 631 26.9 µM | LOX IMVI 16 µM | M14 16.6 µM | TK-10 43 µM | KM12 23 µM | CCRF-CEM 10.6 µM | SK-MEL-2 24.7 µM | EKVX 96.6 µM | SF-539 8.32 µM | SK-MEL-28 16.5 µM | KM-20L2 38.3 µM | DMS-273 23.3 µM | RXF 393 8.53 µM | SF-268 18.9 µM | CAKI-1 21.1 µM | DMS-114 10.2 µM | A498 45.8 µM | U-251 7.53 µM | OVCAR-3 24.6 µM

Oc1cc2c(cc1O)-c1[nH]ncc1CC2
inactive: HOP-62 55.5 µM | SK-OV-3 22.5 µM | COLO 205 26.1 µM | NCI-H23 35.4 µM | Malme-3M 59.8 µM | UACC-257 58.7 µM | ACHN 21.6 µM | SNB-75 16.6 µM | SW-620 35.4 µM | HL-60 24.3 µM | HOP-92 14.4 µM | SNB-19 46.8 µM | HCT-116 51.1 µM | DLD-1 52.5 µM | SF-295 49.1 µM | K562 32.7 µM | UACC-62 27.8 µM | NCI-H522 11.7 µM | OVCAR-8 37.9 µM | A549 42.4 µM | M19-MEL 40.7 µM | HT-29 37.6 µM | NCI-H460 43.3 µM | LXFL 529 31.3 µM | HOP-18 6.15 µM | UO-31 18.4 µM | SN12C 49 µM | HCC 2998 22.4 µM | MOLT-4 22.4 µM | OVCAR-5 63.4 µM | NCI-H226 18.6 µM | IGROV-1 31.6 µM | SK-MEL-5 35.1 µM | 786-0 39.6 µM | SNB-78 80.4 µM | LOX IMVI 33.5 µM | M14 72.4 µM | TK-10 75 µM | KM12 49.5 µM | CCRF-CEM 11.4 µM | SK-MEL-2 64.9 µM | EKVX 10.2 µM | SF-539 22.4 µM | SK-MEL-28 58.3 µM | KM-20L2 38.5 µM | DMS-273 42.1 µM | SF-268 25.6 µM | XF498 27.6 µM | CAKI-1 33.6 µM | DMS-114 16.5 µM | SR 27.8 µM | A498 25.4 µM | U-251 18.2 µM
54.1 µM: HCT-15
